Results: ChEMBL document CHEMBL1156543, “Identification of N-(4-piperidinyl)-4-(2,6-dichlorobenzoylamino)-1H-pyrazole-3-carboxamide (AT7519), a novel cyclin dependent kinase inhibitor using fragment-based X-ray crystallography and structure based drug design” (J Med Chem, 2008)

Columns and labels:
[1] = target: Cyclin-dependent kinase 2 (Homo sapiens, UniProt P24941)
Description: Inhibition of CDK2/Cyclin A by radiometric assay

[2] = target: Cyclin-dependent kinase 1/cyclin B1 (Homo sapiens, UniProt P06493)
Description: Inhibition of CDK1/Cyclin B by radiometric assay

[3] = in vivo; conditions: BALB/c, mouse, plasma, iv, 0.2 mg/kg
[4] = test system: HCT-116; assay: Antitumor activity against human HCT116 cells xenografted into SCID mouse at 18.2 mg/kg, ip bid for 10 days; assay type: functional; conditions: HCT-116, ip, 240 h, route intraperitoneal
[5] = test system: HCT-116; assay: Antitumor activity against human HCT116 cells xenografted into SCID mouse at 9.1 mg/kg, ip bid for 10 days; assay type: functional; conditions: HCT-116, ip, 240 h, route intraperitoneal
[6] = test system: HCT-116; assay: Antitumor activity against human HCT116 cells xenografted into SCID mouse at […], ip bid for 10 days; assay type: functional; conditions: HCT-116, ip, 240 h, dose 4.6 mg/kg, route intraperitoneal
[7] = test system: HCT-116; assay: Antitumor activity against human HCT116 cells xenografted into BALB/c mouse at 10 mg/kg, ip bid administered QDx9 schedule relative to control; assay type: functional; conditions: route intraperitoneal
[8] = species on record: Mus musculus; conditions: in vivo, ip, 10 mg/kg
[9] = in vitro; conditions: mouse, plasma
Description: Protein binding in mouse plasma at 1 ug/ml after 30 mins

[10] = test system: HCT-116; conditions: dose 9.1 mg/kg; route intraperitoneal
Description: Antitumor activity against human HCT116 cells xenografted into SCID mouse at 9.1 mg/kg, ip bid administered QDx10 schedule relative to control

Chain of Cyclin-dependent kinase 1/cyclin B1 (P06493 whole entry): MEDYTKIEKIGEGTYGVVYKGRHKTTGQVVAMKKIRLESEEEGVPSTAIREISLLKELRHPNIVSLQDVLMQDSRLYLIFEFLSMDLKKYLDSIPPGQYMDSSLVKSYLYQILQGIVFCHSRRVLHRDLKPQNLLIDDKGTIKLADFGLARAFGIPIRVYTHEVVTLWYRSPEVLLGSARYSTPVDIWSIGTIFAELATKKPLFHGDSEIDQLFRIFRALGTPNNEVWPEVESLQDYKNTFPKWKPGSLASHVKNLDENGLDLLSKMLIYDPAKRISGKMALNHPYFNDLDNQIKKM
Chain of Cyclin-dependent kinase 1/cyclin B1 (P14635 whole entry, further chain): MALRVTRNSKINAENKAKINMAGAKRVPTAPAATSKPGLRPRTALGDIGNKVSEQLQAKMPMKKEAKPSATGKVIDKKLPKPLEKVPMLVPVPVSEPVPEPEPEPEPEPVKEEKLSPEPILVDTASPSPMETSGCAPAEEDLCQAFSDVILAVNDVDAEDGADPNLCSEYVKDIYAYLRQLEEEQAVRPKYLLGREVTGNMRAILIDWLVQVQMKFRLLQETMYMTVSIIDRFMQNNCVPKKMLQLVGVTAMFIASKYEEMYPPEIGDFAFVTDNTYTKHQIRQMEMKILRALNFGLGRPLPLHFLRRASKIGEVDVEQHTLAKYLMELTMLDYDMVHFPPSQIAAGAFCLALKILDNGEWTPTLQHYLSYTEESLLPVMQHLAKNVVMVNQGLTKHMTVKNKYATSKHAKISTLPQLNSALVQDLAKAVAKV

| IC50 [1] | IC50 [2] | clearance [3] | SMILES | further results |
| --- | --- | --- | --- | --- |
| 3000 nM | – | – | O=C(Nc1ccccc1)c1n[nH]c2ccccc12 | – |
| 730 nM | – | – | O=C(CO)Nc1c[nH]nc1C(=O)Nc1ccc(F)cc1 | – |
| – | 55 nM | 65 mL/min/kg | O=C(NC1CCCCC1)c1n[nH]cc1NC(=O)c1c(F)cccc1F | – |
| – | – | – | O=C(NC1CCNCC1)c1n[nH]cc1NC(=O)c1c(F)cccc1F [listing 1 of 2 here] | inhibition in vivo at 18.2 mg/kg [4]: 86%; inhibition in vivo at 9.1 mg/kg [5]: 46%; inhibition in vivo at […] [6]: 22% |
| 19 nM | 45 nM | 42 mL/min/kg | O=C(N[C@H]1CC[C@H](O)CC1)c1n[nH]cc1NC(=O)c1c(F)cccc1F | – |
| 7000 nM | – | – | Clc1cncc(Nc2ccccc2)n1 | – |
| 350 nM | – | 38 mL/min/kg | COc1cccc(F)c1C(=O)Nc1c[nH]nc1C(=O)NC1CCNCC1 | T/C [7]: 62%; AUC [8]: 3325 ng·h/g; fraction unbound at 0.5 h, 1 ug/ml [9]: 0.25 |
| 38 nM | 440 nM | 63 mL/min/kg | N[C@H]1CC[C@H](NC(=O)c2n[nH]cc2NC(=O)c2c(F)cccc2F)CC1 | – |
| – | – | 66 mL/min/kg | O=C(NCC1CC1)c1n[nH]cc1NC(=O)c1c(F)cccc1F | – |
| 750 nM | – | 71 mL/min/kg | O=C(NC1CCNCC1)c1n[nH]cc1NC(=O)c1c(F)cc(F)cc1F | – |
| 85000 nM | – | – | Nc1c[nH]nc1C(=O)Nc1ccc(F)cc1 | – |
| 44 nM | 38 nM | 48 mL/min/kg | Cl.O=C(N[C@H]1CCCNC1)c1n[nH]cc1NC(=O)c1c(F)cccc1F | – |
| 110 nM | – | 56 mL/min/kg | O=C(NC1CCNCC1)c1n[nH]cc1NC(=O)c1c(F)cccc1Cl | – |
| – | – | 43 mL/min/kg | O=C(NC1CCNCC1)c1n[nH]cc1NC(=O)c1c(F)cccc1F [listing 2 of 2 here] | AUC [8]: 3422 ng·h/g; T/C [10]: 54%; fraction unbound at 0.5 h, 1 ug/ml [9]: 0.16 |

| SMILES | IC50 [1] | IC50 [2] | clearance [3] | further results |
| --- | --- | --- | --- | --- |
| c1ccc2[nH]c(-c3cc[nH]n3)nc2c1 | 25000 nM | – | – | – |
| O=C(Nc1ccc(F)cc1)c1n[nH]cc1NC(=O)c1c(F)cccc1F | – | 10 nM | 40 mL/min/kg | – |
